Marks after values point to notes of the source that are not given here.
Key:
[1] = tested on: Staphylococcus aureus; assay: Minimum inhibitory concentration by agar dilution (Table VI); assay type: cell-based; settings: 7 strains tested
[2] = Weight gains and feed efficiency in broiler chicks treated with E19020 alpha (Table IX A); assay type: in vivo; settings: for FEED/GAIN 0-3 WEEKS: control 1.43; for FEED/GAIN 0-7 WEEKS: control 1.99; for WEIGHT GAIN IN GRAMS 0-3 WEEKS: control 608; for WEIGHT GAIN IN GRAMS 0-7 WEEKS: control 2145
Procedure: Five male and five female one day old Peterson X Arbor Acres chicks are allotted to starter battery cages by weight. Cages are randomized to treatment groups with seven replicates per treatment. […] The positive standard is penicillin at 200 ppm. Diets are prepared weekly.

[3] = tested on: Babesia bovis; assay: Anti-Babesia bovis activity, 3H hypoxanthine incorporation in in vitro culture; settings: parasitemia of 4%

C/C=C\C=C\[C@@H]1O[C@](O)([C@H](CO[C@H]2C[C@@H](OC)[C@@H](O[C@@H]3C[C@@H](OC)[C@@H](O[C@H]4C[C@H](OC)[C@H](O)[C@H](C)O4)[C@H](C)O3)[C@@H](C)O2)C(=O)NC/C=C/C=C(\C)[C@@H](OC)[C@H](C)[C@H]2C[C@H](O)[C@H](/C=C/C=C/C=C/C(=O)O)O2)[C@H](OC(=O)Cc2ccccc2)[C@H](O)C1(C)C [LL-E19020 alpha]
MIC [1]: ≧ 256 µg/ml
FEED/GAIN % IMPROVEMENT OVER CONTROLS 0-3 WEEKS ([2]; 6.25 PPM): 3.5%
FEED/GAIN % IMPROVEMENT OVER CONTROLS 0-7 WEEKS ([2]; 6.25 PPM): 5.0%
WEIGHT GAIN % IMPROVEMENT OVER CONTROLS 0-3 WEEKS ([2]; 6.25 PPM): 4.4%
WEIGHT GAIN % IMPROVEMENT OVER CONTROLS 0-7 WEEKS ([2]; 6.25 PPM): 1.8%
FEED/GAIN 0-3 WEEKS ([2]; 6.25 PPM): 1.38**
FEED/GAIN 0-7 WEEKS ([2]; 6.25 PPM): 1.89**
WEIGHT GAIN IN GRAMS 0-3 WEEKS ([2]; 6.25 PPM): 635* GRAMS
WEIGHT GAIN IN GRAMS 0-7 WEEKS ([2]; 6.25 PPM): 2183 GRAMS
FEED/GAIN % IMPROVEMENT OVER CONTROLS 0-3 WEEKS ([2]; 12.5 PPM): 3.5%
FEED/GAIN % IMPROVEMENT OVER CONTROLS 0-7 WEEKS ([2]; 12.5 PPM): 4.0%
WEIGHT GAIN % IMPROVEMENT OVER CONTROLS 0-3 WEEKS ([2]; 12.5 PPM): 6.3%
WEIGHT GAIN % IMPROVEMENT OVER CONTROLS 0-7 WEEKS ([2]; 12.5 PPM): 2.5%
FEED/GAIN 0-3 WEEKS ([2]; 12.5 PPM): 1.38**
FEED/GAIN 0-7 WEEKS ([2]; 12.5 PPM): 1.91**
WEIGHT GAIN IN GRAMS 0-3 WEEKS ([2]; 12.5 PPM): 647* GRAMS
WEIGHT GAIN IN GRAMS 0-7 WEEKS ([2]; 12.5 PPM): 2198 GRAMS
FEED/GAIN % IMPROVEMENT OVER CONTROLS 0-3 WEEKS ([2]; 25 PPM): 3.5%
FEED/GAIN % IMPROVEMENT OVER CONTROLS 0-7 WEEKS ([2]; 25 PPM): 5.0%
WEIGHT GAIN % IMPROVEMENT OVER CONTROLS 0-3 WEEKS ([2]; 25 PPM): 8.4%
WEIGHT GAIN % IMPROVEMENT OVER CONTROLS 0-7 WEEKS ([2]; 25 PPM): 5.7%
FEED/GAIN 0-3 WEEKS ([2]; 25 PPM): 1.38**
FEED/GAIN 0-7 WEEKS ([2]; 25 PPM): 1.89**
WEIGHT GAIN IN GRAMS 0-3 WEEKS ([2]; 25 PPM): 659** GRAMS
WEIGHT GAIN IN GRAMS 0-7 WEEKS ([2]; 25 PPM): 2267* GRAMS
FEED/GAIN % IMPROVEMENT OVER CONTROLS 0-3 WEEKS ([2]; 50 PPM): 2.8%
FEED/GAIN % IMPROVEMENT OVER CONTROLS 0-7 WEEKS ([2]; 50 PPM): 4.0%
WEIGHT GAIN % IMPROVEMENT OVER CONTROLS 0-3 WEEKS ([2]; 50 PPM): 5.6%
WEIGHT GAIN % IMPROVEMENT OVER CONTROLS 0-7 WEEKS ([2]; 50 PPM): 2.8%
FEED/GAIN 0-3 WEEKS ([2]; 50 PPM): 1.39*
FEED/GAIN 0-7 WEEKS ([2]; 50 PPM): 1.91**
WEIGHT GAIN IN GRAMS 0-3 WEEKS ([2]; 50 PPM): 642* GRAMS
WEIGHT GAIN IN GRAMS 0-7 WEEKS ([2]; 50 PPM): 2206 GRAMS
FEED/GAIN % IMPROVEMENT OVER CONTROLS 0-3 WEEKS ([2]; 100 PPM): 5.6%
FEED/GAIN % IMPROVEMENT OVER CONTROLS 0-7 WEEKS ([2]; 100 PPM): 4.0%
WEIGHT GAIN % IMPROVEMENT OVER CONTROLS 0-3 WEEKS ([2]; 100 PPM): 7.3%
WEIGHT GAIN % IMPROVEMENT OVER CONTROLS 0-7 WEEKS ([2]; 100 PPM): 2.8%
FEED/GAIN 0-3 WEEKS ([2]; 100 PPM): 1.35**
FEED/GAIN 0-7 WEEKS ([2]; 100 PPM): 1.91**
WEIGHT GAIN IN GRAMS 0-3 WEEKS ([2]; 100 PPM): 652** GRAMS
WEIGHT GAIN IN GRAMS 0-7 WEEKS ([2]; 100 PPM): 2204 GRAMS
50% inhibitory concentration [3]: 0.625 µg/mL

— patent publication EP0252380B1, “Antibiotic LL-E19020 alpha and beta” (AMERICAN CYANAMID COMPANY, priority 1986, dated 1988)
